{"source": "paper PMC4818757", "about": "“Small molecule inhibitors of the Dishevelled‐CXXC5 interaction are new drug candidates for bone anabolic osteoporosis therapy” (EMBO Molecular Medicine, 2016)", "test_system": "normal or cancer cells derived from various tissues", "experiment": "MTT assay on various normal or cancer cells", "assay_type": "cell-based", "method": "(amino acids 1-34) was subcutaneously injected into the Sham-operated\n(Sham) or ovariectomized (OVX) mice on 5 sequential days per week for 4 weeks [n =4]. During treatment, the weights of each mouse were measured and recorded every week (A). After 4 weeks treatment, mice were scarified and their organs were subjected to histological analyses.\nHematoxylin and Eosin staining of liver (B), lung (C), and spleen (D).\nE Various cells were treated with DMSO or 0.1, 1, or 10 µ M KY-02327.\nAfter 48 hours, cells were subjected to an MTT assay (OD590 reading) to measure cell viability. NSC: neural stem cell, OB: osteoblast, MSC: mesenchymal stem cell. The data are the mean ± s.d. (error bars). [n =3]"}
{"smiles": "CCOC(=O)c1cc2cc(O)ccc2n1CC(=O)NCCN1CCCCC1", "note": "[KY‐02327]", "values": [{"measurement": "toxic effect on cell viability (MTT)", "setting": "0.1, 1, or 10 M, 48 hours", "value": "no significant toxic effect"}, {"measurement": "proliferation of MC3T3E1 cells (MTT)", "setting": "MC3T3E1", "value": "did not significantly affect"}, {"measurement": "proliferation of murine primary osteoblasts (OB)", "setting": "OB", "value": "unaffected"}]}
